# Where a SMILES comes first, the peptide text is derived from it. [ ]: non-standard residue; d: D form.
# Key:
# T and B cells in spleen = assay: In vivo/ex vivo mitogenic proliferation of T and B cells (spleen); set-up: species or system C57BL/6 mice; conditions: FIGS. 1A-1D
# Method: (§1) C57BL.backslash.6 mice are treated with 0, 50, 100, 200, and 300 mg/kg of drug (in saline) for 4 consecutive days. Blood is taken by cardiac puncture on day 5, and the lymphocytes are isolated from spleen in the following manner:
# (§2) The spleen is aseptically removed and mashed by pressing against a steel strainer with a rubber plunger. The cell suspension is separated from the clumps by letting them settle at the bottom of the tube. The cell suspension is then separated on a Lymphocyte M layer and the interface is recovered and resuspended in media.
# 2. Mitogenic proliferation of T and B cells (spleen)
# NK cells = assay: Functional in vivo/ex vivo NK cell assay, spleen cells, effector:target ratio 100:1; set-up: species or system mice; conditions: for NK cell assay, % response of CTL: CTL = control
# Method: as §1, §2
# Important in immunosurveillance, NK cells are capable of lysing tumors, virus-infected or embryo-derived cells in vitro spontaneously without prior sensitization. Immunomodulators are evaluated using murine splenocytes and human peripheral blood mononuclear leukocytes.
# Spleen cells were used to test for NK activity at a effector:target ratio of 100:1.
# [1] = Stability in Rat Whole Blood at 37° C., HPLC; type: in vitro ADME; set-up: half-life: dose or concentration left out as unconfirmed; conditions: for HPLC AREA: rat whole blood 37° C.
# Method: Eluent: A=CH3 CN B=Ammonium Acetate 0.01 M pH 6
# Stock solution of the peptide is prepared at a concentration of 1.lmg/ml and dissolved in 10% CH3 CN/H2 O.
# Rat Whole Blood (EDTA) is spiked with the peptide to give a concentration of […].
# Same concentration of 10% CH3 CN/H2 O is also spiked to Rat Whole Blood (EDTA) as a control blank.
# Aliquotes of […] are taken (in duplicate) of both spiked and control blanks at the following times:
# FOR BLANK BLOOD: 0', 90'.
# Each aliquoted samples are centrifuged at 4° C., 4400 rpm for 10 minutes.
# 3. Extraction Procedure: Liquid--Liquid Extraction
# For each plasma sample, 100 μl of plasma are transferred to an eppendorf vial and 200 μl of acetonitrile added to it. The mixture is vortexed for 30 seconds and centrifuged at 4° C., 5 minutes 14000 rpm (Centra MP4R centrifuge, rotor # IEC 851). 200 μl of supernatant are transferred to another vial and evaporated to dryness with the Speed vac Plus (Savant SC-110A). The dried sample is reconstituted with […] of Mobile phase and an aliquote of this is injected to HPLC(high pressure liquid chromatography) for analysis.
compound,measurement,setting,value
"NCCCC[C@H](N)C(=O)N[C@@H](CC(N)=O)C(=O)N1CCC[C@H]1C(=O)N[C@@H](Cc1ccc(O)cc1)C(=O)O [PEPTIDE #1, H-Lys-Asn-Pro-Tyr-OH] (H-KNPY-OH)",activation of T and B cells in spleen in vivo/ex vivo (in words),T and B cells in spleen,activate T and B cells
same,"NK cell assay, % response of IL-2",NK cells; 50 mg/kg,48.34%
same,"NK cell assay, Average",NK cells; 50 mg/kg,2.52
same,"NK cell assay, % response of CTL",NK cells; 50 mg/kg,112.48%
same,"NK cell assay, % response of IL-2",NK cells; 100 mg/kg,69.48%
same,"NK cell assay, Average",NK cells; 100 mg/kg,3.63
same,"NK cell assay, % response of CTL",NK cells; 100 mg/kg,161.66%
same,"NK cell assay, % response of IL-2",NK cells; 200 mg/kg,53.13%
same,"NK cell assay, Average",NK cells; 200 mg/kg,2.77
same,"NK cell assay, % response of CTL",NK cells; 200 mg/kg,123.63%
same,"NK cell assay, % response of IL-2",NK cells; 300 mg/kg,58.49%
same,"NK cell assay, Average",NK cells; 300 mg/kg,3.05
same,"NK cell assay, % response of CTL",NK cells; 300 mg/kg,136.11%
"NCCCC[C@@H](N)C(=O)N[C@@H](CC(N)=O)C(=O)N1CCC[C@H]1C(=O)N[C@@H](Cc1ccc(O)cc1)C(=O)O [PEPTIDE #5, H-(D-Lys)-Asn-Pro-Tyr-OH] (H-[dK]NPY-OH)",HPLC AREA,[1]; 0 min,2471958
same,HPLC AREA,[1]; 5 min,2362251.2
same,HPLC AREA,[1]; 10 min,2386700
same,HPLC AREA,[1]; 15 min,2965610
same,HPLC AREA,[1]; 30 min,2038700.5
same,HPLC AREA,[1]; 45 min,2186985.5
same,HPLC AREA,[1]; 60 min,2194185.5
same,HPLC AREA,[1]; 75 min,2559208.5
same,HPLC AREA,[1]; 90 min,2263081.5
same,half-life,"[1]; rat, rat whole blood (EDTA), 37° C.",> 1.5 h
